{
  "source": "paper PMC12028158",
  "about": "“Synthesis and In Vitro Evaluation of the Anticancer Effect of Novel Phosphonium Vindoline Derivatives” (International Journal of Molecular Sciences, 2025)",
  "type_in_all_cases": "cell-based",
  "key": {"OVCAR-8": {"test_system": "OVCAR-8", "assay": "NCI60 one-dose screen", "details": "Homo sapiens, OVCAR-8, read-out: Growth percent"}, "SK-MEL-28": {"test_system": "SK-MEL-28", "assay": "NCI60 one-dose screen", "details": "Homo sapiens, SK-MEL-28, read-out: Growth percent"}, "SR": {"test_system": "SR", "assay": "NCI60 one-dose screen", "details": "Homo sapiens, read-out: Growth percent"}, "SF-539": {"test_system": "SF-539", "assay": "NCI60 one-dose screen", "details": "Homo sapiens, SF-539, read-out: Growth percent"}, "786-0": {"test_system": "786-0", "assay": "NCI60 one-dose screen", "details": "Homo sapiens, 786-0, read-out: Growth percent"}, "Renal Cancer panel": {"test_system": "Renal Cancer panel", "assay": "NCI60 five-dose screen, panel mean", "details": "Homo sapiens, read-out: Mean GI50"}, "HS 578T": {"test_system": "HS 578T", "assay": "NCI60 one-dose screen", "details": "Homo sapiens, Hs-578T, read-out: Growth percent"}, "A498 [1]": {"test_system": "A498", "assay": "NCI60 one-dose screen", "details": "Homo sapiens, A498, read-out: Growth percent"}, "PC-3 [2]": {"test_system": "PC-3", "assay": "NCI60 one-dose screen", "details": "Homo sapiens, PC-3, read-out: Growth percent"}, "DU-145": {"test_system": "DU-145", "assay": "NCI60 one-dose screen", "details": "Homo sapiens, DU-145, read-out: Growth percent"}, "ACHN": {"test_system": "ACHN", "assay": "NCI60 one-dose screen", "details": "Homo sapiens, read-out: Growth percent"}, "HOP-92 [3]": {"test_system": "HOP-92", "assay": "NCI60 one-dose screen", "details": "Homo sapiens, HOP-92, read-out: Growth percent"}, "SK-OV-3 [4]": {"test_system": "SK-OV-3", "assay": "NCI60 five-dose screen", "details": "Homo sapiens, SK-OV-3"}, "UACC-62 [5]": {"test_system": "UACC-62", "assay": "NCI60 five-dose screen", "details": "Homo sapiens, UACC-62"}, "SK-OV-3 [6]": {"test_system": "SK-OV-3", "assay": "NCI60 one-dose screen", "details": "Homo sapiens, SK-OV-3, read-out: Growth percent"}, "HOP-92 [7]": {"test_system": "HOP-92", "assay": "NCI60 five-dose screen", "details": "Homo sapiens, HOP-92"}, "SF-295": {"test_system": "SF-295", "assay": "NCI60 five-dose screen", "details": "Homo sapiens, SF-295"}, "SN12C": {"test_system": "SN12C", "assay": "NCI60 one-dose screen", "details": "Homo sapiens, read-out: Growth percent"}, "NCI/ADR-RES": {"test_system": "NCI/ADR-RES", "assay": "NCI60 five-dose screen", "details": "Homo sapiens"}, "MDA-MB-435": {"test_system": "MDA-MB-435", "assay": "NCI60 five-dose screen", "details": "Homo sapiens, MDA-MB-435"}, "HOP-62": {"test_system": "HOP-62", "assay": "NCI60 five-dose screen", "details": "Homo sapiens, HOP-62"}, "HL-60(TB)": {"test_system": "HL-60(TB)", "assay": "NCI60 five-dose screen", "details": "Homo sapiens, HL-60"}, "OVCAR-3": {"test_system": "OVCAR-3", "assay": "NCI60 five-dose screen", "details": "Homo sapiens, OVCAR-3"}, "K-562 [8]": {"test_system": "K-562", "assay": "NCI60 one-dose screen", "details": "Homo sapiens, K562, read-out: Growth percent"}, "BT-549": {"test_system": "BT-549", "assay": "NCI60 five-dose screen", "details": "Homo sapiens, BT-549"}, "NCI-H460": {"test_system": "NCI-H460", "assay": "NCI60 five-dose screen", "details": "Homo sapiens, NCI-H460"}, "RPMI-8226": {"test_system": "RPMI-8226", "assay": "NCI60 one-dose screen", "details": "Homo sapiens, RPMI-8226, read-out: Growth percent"}, "KM12": {"test_system": "KM12", "assay": "NCI60 one-dose screen", "details": "Homo sapiens, KM12, read-out: Growth percent"}, "MALME-3M": {"test_system": "MALME-3M", "assay": "NCI60 one-dose screen", "details": "Homo sapiens, Malme-3M, read-out: Growth percent"}, "HT29 [9]": {"test_system": "HT29", "assay": "NCI60 five-dose screen", "details": "Homo sapiens, HT-29"}, "NCI-H226": {"test_system": "NCI-H226", "assay": "NCI60 one-dose screen", "details": "Homo sapiens, NCI-H226, read-out: Growth percent"}, "EKVX [10]": {"test_system": "EKVX", "assay": "NCI60 five-dose screen", "details": "Homo sapiens"}, "SF-268": {"test_system": "SF-268", "assay": "NCI60 one-dose screen", "details": "Homo sapiens, SF-268, read-out: Growth percent"}, "TK-10": {"test_system": "TK-10", "assay": "NCI60 five-dose screen", "details": "Homo sapiens, TK-10"}, "A549/ATCC": {"test_system": "A549/ATCC", "assay": "NCI60 five-dose screen", "details": "Homo sapiens, A549"}, "U251 [11]": {"test_system": "U251", "assay": "NCI60 one-dose screen", "details": "Homo sapiens, U-251, read-out: Growth percent"}, "OVCAR-4": {"test_system": "OVCAR-4", "assay": "NCI60 five-dose screen", "details": "Homo sapiens, OVCAR-4"}, "U251 [12]": {"test_system": "U251", "assay": "NCI60 five-dose screen", "details": "Homo sapiens, U-251"}, "MOLT-4": {"test_system": "MOLT-4", "assay": "NCI60 one-dose screen", "details": "Homo sapiens, MOLT-4, read-out: Growth percent"}, "EKVX [13]": {"test_system": "EKVX", "assay": "NCI60 one-dose screen", "details": "Homo sapiens, read-out: Growth percent"}, "K-562 [14]": {"test_system": "K-562", "assay": "NCI60 five-dose screen", "details": "Homo sapiens, K562"}, "UACC-62 [15]": {"test_system": "UACC-62", "assay": "NCI60 one-dose screen", "details": "Homo sapiens, UACC-62, read-out: Growth percent"}, "SK-MEL-2": {"test_system": "SK-MEL-2", "assay": "NCI60 one-dose screen", "details": "Homo sapiens, SK-MEL-2, read-out: Growth percent"}, "A498 [16]": {"test_system": "A498", "assay": "NCI60 five-dose screen", "details": "Homo sapiens, A498"}, "HT29 [17]": {"test_system": "HT29", "assay": "NCI60 one-dose screen", "details": "Homo sapiens, HT-29, read-out: Growth percent"}, "COLO 205": {"test_system": "COLO 205", "assay": "NCI60 five-dose screen", "details": "Homo sapiens, COLO 205"}, "PC-3 [18]": {"test_system": "PC-3", "assay": "NCI60 five-dose screen", "details": "Homo sapiens, PC-3"}},
  "data": [
    {"molecule": "CCC12C=CCN3CCC4(c5ccc(OC)cc5N(C)C4C(O)(C(=O)OC)C1OC(=O)CCC[P+](c1ccc(C)cc1)(c1ccc(C)cc1)c1ccc(C)cc1)C32", "note": "(centres unmarked) [9a]", "values": [
      {"measurement": "activity at 10 µM", "setting": "OVCAR-8", "value": -85, "unit": "%"},
      {"measurement": "activity at 10 µM", "setting": "SK-MEL-28", "value": -96.6, "unit": "%"},
      {"measurement": "activity at 10 µM", "setting": "SR", "value": 5.74, "unit": "%"},
      {"measurement": "activity at 10 µM", "setting": "SF-539", "value": -96.6, "unit": "%"},
      {"measurement": "activity at 10 µM", "setting": "786-0", "value": -88, "unit": "%"},
      {"measurement": "GI50", "setting": "Renal Cancer panel", "value": 1050, "unit": "nM"},
      {"measurement": "activity at 10 µM", "setting": "HS 578T", "value": -60.3, "unit": "%"},
      {"measurement": "activity at 10 µM", "setting": "A498 [1]", "value": -88.6, "unit": "%"},
      {"measurement": "activity at 10 µM", "setting": "PC-3 [2]", "value": -83.3, "unit": "%"},
      {"measurement": "activity at 10 µM", "setting": "DU-145", "value": -78.5, "unit": "%"},
      {"measurement": "activity at 10 µM", "setting": "ACHN", "value": -97.8, "unit": "%"},
      {"measurement": "activity at 10 µM", "setting": "HOP-92 [3]", "value": -83.2, "unit": "%"},
      {"measurement": "GI50", "setting": "SK-OV-3 [4]", "value": 290, "unit": "nM"},
      {"measurement": "GI50", "setting": "UACC-62 [5]", "value": 275, "unit": "nM"},
      {"measurement": "activity at 10 µM", "setting": "SK-OV-3 [6]", "value": -81, "unit": "%"},
      {"measurement": "GI50", "setting": "HOP-92 [7]", "value": 187, "unit": "nM"},
      {"measurement": "GI50", "setting": "SF-295", "value": 521, "unit": "nM"},
      {"measurement": "activity at 10 µM", "setting": "SN12C", "value": -88.1, "unit": "%"},
      {"measurement": "GI50", "setting": "NCI/ADR-RES", "value": 8870, "unit": "nM"},
      {"measurement": "GI50", "setting": "MDA-MB-435", "value": 331, "unit": "nM"},
      {"measurement": "GI50", "setting": "HOP-62", "value": 470, "unit": "nM"},
      {"measurement": "GI50", "setting": "HL-60(TB)", "value": 162, "unit": "nM"},
      {"measurement": "GI50", "setting": "OVCAR-3", "value": 374, "unit": "nM"},
      {"measurement": "activity at 10 µM", "setting": "K-562 [8]", "value": -13.1, "unit": "%"},
      {"measurement": "GI50", "setting": "BT-549", "value": 247, "unit": "nM"},
      {"measurement": "GI50", "setting": "NCI-H460", "value": 327, "unit": "nM"},
      {"measurement": "activity at 10 µM", "setting": "RPMI-8226", "value": -56.3, "unit": "%"},
      {"measurement": "activity at 10 µM", "setting": "KM12", "value": -76.1, "unit": "%"},
      {"measurement": "activity at 10 µM", "setting": "MALME-3M", "value": -94.4, "unit": "%"},
      {"measurement": "GI50", "setting": "HT29 [9]", "value": 219, "unit": "nM"},
      {"measurement": "activity at 10 µM", "setting": "NCI-H226", "value": -77.4, "unit": "%"},
      {"measurement": "GI50", "setting": "EKVX [10]", "value": 534, "unit": "nM"},
      {"measurement": "activity at 10 µM", "setting": "SF-268", "value": -46.3, "unit": "%"},
      {"measurement": "GI50", "setting": "TK-10", "value": 600, "unit": "nM"},
      {"measurement": "GI50", "setting": "A549/ATCC", "value": 334, "unit": "nM"},
      {"measurement": "activity at 10 µM", "setting": "U251 [11]", "value": -91.2, "unit": "%"},
      {"measurement": "GI50", "setting": "OVCAR-4", "value": 370, "unit": "nM"},
      {"measurement": "GI50", "setting": "U251 [12]", "value": 291, "unit": "nM"},
      {"measurement": "activity at 10 µM", "setting": "MOLT-4", "value": -45.1, "unit": "%"},
      {"measurement": "activity at 10 µM", "setting": "EKVX [13]", "value": -94.7, "unit": "%"},
      {"measurement": "GI50", "setting": "K-562 [14]", "value": 291, "unit": "nM"},
      {"measurement": "activity at 10 µM", "setting": "UACC-62 [15]", "value": -96.8, "unit": "%"},
      {"measurement": "activity at 10 µM", "setting": "SK-MEL-2", "value": -85.4, "unit": "%"},
      {"measurement": "GI50", "setting": "A498 [16]", "value": 1630, "unit": "nM"},
      {"measurement": "activity at 10 µM", "setting": "HT29 [17]", "value": -80.7, "unit": "%"},
      {"measurement": "GI50", "setting": "COLO 205", "value": 176, "unit": "nM"},
      {"measurement": "GI50", "setting": "PC-3 [18]", "value": 310, "unit": "nM"}
    ]}
  ]
}
